Test results: patent publication US20230031369A1, “THERAPEUTIC INTERACTIONS OF LEUCOMETHYLTHIONINIUM” (WisTa Laboratories Ltd., priority 2019, published 2023)
“Also recorded” adds a separate entry of the source.

What was measured:
[1] = test system: glutamate release from brain synaptosomal preparations; experiment: Glutamate release from brain synaptosomal preparations, L1 mice; format: in vivo, tau transgenic L1 mice
mitochondrial complex IV [2] = experiment: Complex IV activity in brain mitochondria, wild-type mice; format: in vivo; conditions: following LMTM treatment
Procedure: (§1) Wild-type and L1 mice (n=7-16 for each group) were pre-treated with rivastigmine (0.1 or 0.5 mg/kg/day) or memantine (2 or 20 mg/kg/day) or vehicle for 5 weeks by gavage. For the following 6 weeks, LMTM (5 and 15 mg/kg) or vehicle were added to this daily treatment regime, also by gavage. Animals were tested behaviourly during weeks 10 and 11 using a problem solving task in the open field water maze and then sacrificed for immunohistochemical and other tissue analyses.

wild-type mice = experiment: Problem solving task in the open field water maze, wild-type mice; format: in vivo; conditions: LMTM
Procedure: as §1

[3] = test system: SNARE complex proteins (SNAP25, syntaxin and VAMP2); experiment: Immunohistochemistry of SNARE complex proteins, L1 mice; format: in vivo, tau transgenic L1 mice; conditions: combination of LMTM with chronic rivastigmine pretreatment
Procedure: FIG. 3. Treatment effects of LMTM alone or following chronic pretreatment with rivastigmine in tau transgenic L1 mice on levels of (A) SNARE complex proteins (SNAP25, syntaxin and VAMP2) and (B) α-synuclein measured immunohistochemically as the mean value for hippocampus, visual cortex, diagonal band and septum. (*, p<0.05; ***, p<0.001; ****, p<0.0001).
as §1
(§2) Translating doses from mice to humans requires consideration of a number of factors. […] The higher dose of 15 mg/kg/day is generally required for LMTM to be fully effective in the L1 mouse model (Melis et al., 2015a). […] Tissue sectioned for immunohistochemistry was labelled with antibody and processed using Image J to determine protein expression densitometrically. Data are presented as Z-score transformations without units.

[4] = test system: ACh levels in the hippocampus; experiment: Hippocampal ACh levels with scopolamine and 100 nanomolar rivastigmine in the perfusion fluid; format: in vivo, wild type mice
Procedure: Under the condition of cholinesterase inhibition used in these experiments (a very small amount of a cholinesterase inhibitor, 100 nanomolar rivastigmine, added to the perfusion fluid), ACh levels in the hippocampus rise, and when they rise strongly enough, they limit additional ACh release by activating pre-synaptic muscarinic receptors of the M2/M4 subtype (so-called negative feedback receptors).
In this situation, adding scopolamine (1 μM) to the perfusion fluid blocks these presynaptic receptors and, as a consequence, ACh levels rise by 3-5 fold. The fact that LMTM is not additive with rivastigmine in these experiments supports the conclusion that LMTM has a different mechanism of action from rivastigmine. In other words, although LMTM has been described as being a weak inhibitor of cholinesterases in high concentrations, the present effects seem to be unrelated to cholinesterase inhibition, because there is no additive effect with small quantities of rivastigmine.

[5] = test system: acetylcholine (ACh) levels in hippocampus; experiment: Hippocampal ACh levels by microdialysis and HPLC, L1 mice; format: in vivo, tau transgenic L1 mice
Procedure: (§3) For measurement of acetylcholine (ACh) levels in hippocampus, animals (wild-type or L1) were treated with LMTM (5 mg/kg/day for 2 weeks) after prior treatment for 2 weeks with or without rivastigmine (0.5 mg/kg/day). Rivastigmine was administered subcutaneously with an Alzet minipump whereas LMTM was administered by oral gavage. Levels of ACh were measured in hippocampus using an implanted microdialysis probe and HPLC analysis of the extracellular fluid.

mitochondrial complex IV [6] = experiment: Complex IV activity relative to citrate synthetase activity in brain mitochondria, L1 mice; format: in vivo, tau transgenic L1 mice
Procedure: as §1

[7] = 8 mg/day dose; split at Cmax threshold of […]; from WO2020/020751; cited from earlier work
core tau unit of the PHF = biological target: T1, core tau unit of the PHF (Homo sapiens, UniProt P10636); experiment: Tau immunoreactivity (relative optical density) in vertical diagonal band, L1 mice; format: in vivo, tau transgenic L1 mice
T1 construct: three-repeat tau fragment encompassing residues 296-390 of the 2N4R tau isoform; expressed in transfected cells; host or cells: transgenic L1 mice (NMRI strain, Thy 1 promotor), brain sections of the vertical diagonal band
Procedure: FIG. 5. Treatment effects of LMTM alone or following chronic pretreatment with rivastigmine in tau transgenic L1 mice compared with vehicle-treated wild-type mice on levels of tau immunoreactivity (relative optical density) (A) and neurons immunoreactive for choline acetyltransferase (B) in vertical diagonal band. (*, p<0.05; **, p<0.01; ***, p<0.001).
as §1, §2

[8] = test system: acetylcholine (ACh) levels in hippocampus; experiment: Hippocampal ACh levels by microdialysis and HPLC, wild-type mice; format: in vivo; conditions: LMTM after prior treatment with rivastigmine
Procedure: as §3

[9] = ADAS-cog change after withdrawal of LMTM 8 mg/day following 18 months of treatment; format: in vivo, human
Procedure: Following 18 months of treatment with 8 mg/day LMTM, subjects were required to have a 1 month “washout” followed by cognitive assessment of change. The group was split according to whether they has received LMTM as an add-on to existing symptomatic therapy (AChEI, Memantine, collectively abbreviated to “Achmem”) or as a monotherapy.
The group was further analysed in terms of subjects who had received a high Cmax exposure or a low one.

tau transgenic L1 mice = experiment: Problem solving task in the open field water maze, L1 mice; format: in vivo
Procedure: FIG. 7. Effect of combined administration of Memantine and LMTM on problem solving deficits in female Line 1 mice, aged 5.5 months at the beginning of the study. Memantine was administered at 20 mg/kg and LMTM at 15 mg/kg. Mice were treated with vehicle or Memantine for 5 weeks prior to Memantine plus LMTM treatment for 6 weeks, with the mice being tested in the water maze task over weeks 10 and 11.
as §1

electron transfer chain = conditions: acting as a supplementary electron carrier in the electron transfer chain; cited from earlier work
pathological tau = conditions: in vivo (Congdon et al., 2012); cited from earlier work
cholinesterase = conditions: reported (Pfaffendorf et al., 1997; Deiana et al., 2009); cited from earlier work
[10] = LMTM preceded by chronic rivastigmine

T1 sequence (P10636 613-707): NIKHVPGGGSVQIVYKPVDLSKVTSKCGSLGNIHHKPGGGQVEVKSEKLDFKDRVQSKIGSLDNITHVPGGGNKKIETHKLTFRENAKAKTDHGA

In the case of `CN(C)c1ccc2c(c1)Sc1cc(N(C)C)ccc1N2` [LMTM, Leuco-methylthioninium bis(hydromethanesulfonate)], the “glutamate release from brain synaptosomal preparations” value ([1]; LMTM alone) is reported as “increased; also recorded: significant increases; also recorded: restoration of normal glutamate release”, the “glutamate release from brain synaptosomal preparations” value [1, 10] is reported as “None of these effects were seen” and the “complex IV activity” value (mitochondrial complex IV [2]) is reported as “did not show any increase; also recorded: no effect”. The spatial recognition memory (wild-type mice) was “not associated with improvement”, the SNARE complex proteins [3] was “levels below those seen in the absence of LMTM treatment” and the ACh levels ([4]; wild type mice, scopolamine experiments, combination of LMTM with rivastigmine) was “inhibitory; also recorded: not additive”. For the same compound, the “increase in ACh levels” value ([4]; wild type mice, scopolamine used to increase ACh levels, LMTM alone) was “less than that seen with rivastigmine alone”, the “ACh release in the hippocampus” value ([5]; LMTM alone) was “increased; also recorded: significant increases” and the “ACh release in the hippocampus” value [5, 10] was “None of these effects were seen”. For the same compound, the “mitochondrial complex IV activity” value (mitochondrial complex IV [6]; LMTM alone) was “increased; also recorded: significant increases; also recorded: significant enhancement; also recorded: strong effect”, the “mitochondrial complex IV activity” value (mitochondrial complex IV [6]; [10]) was “None of these effects were seen; also recorded: eliminated this effect” and the “treatment difference in high and low Cmax patients” value [7] was −3.4 ADAS-cog units. The “immunoreactivity against the core tau unit of the PHF measured by optical density” value (core tau unit of the PHF; LMTM after prior chronic treatment with rivastigmine) was “persist”, the “immunoreactivity against the core tau unit of the PHF measured by optical density” value (core tau unit of the PHF; LMTM alone) was “reduced” and the “reduction in basal ACh levels in hippocampus” value [8] was 30%. For the same compound, the “ADAS-cog change following LMTM withdrawal” value ([9]; 18 month LMTM 8 mg/day as add on to symptomatic therapy (AChEI, Memantine), high exposure (Cmax) group, p-value=0.0021) was −0.98, the “ADAS-cog change following LMTM withdrawal” value ([9]; 18 month LMTM 8 mg/day as add on to symptomatic therapy (AChEI, Memantine), lower exposure group, p-value=0.0855) was 0.51 and the “ADAS-cog change following LMTM withdrawal” value ([9]; 18 month LMTM 8 mg/day monotherapy, high exposure (Cmax) group, p-value=0.1651) was 0.73. The “ADAS-cog change following LMTM withdrawal” value ([9]; 18 month LMTM 8 mg/day monotherapy, lower exposure group, p-value=0.0011) was 2.29, the “behavioural changes (spatial learning)” value (tau transgenic L1 mice; LMTM alone) was “reversed deficits; also recorded: significant increases” and the behavioural changes (tau transgenic L1 mice; [10]) was “None of these effects were seen”.
In the case of `CN(C)c1ccc2nc3ccc(=[N+](C)C)cc-3sc2c1` [MT, Methylthioninium], the “concentrations at which mitochondrial activity is enhanced” value (electron transfer chain) is given as 10 to 100 nM, the “concentration range increasing clearance of pathological tau via enhancement of autophagy” value (pathological tau) is given as 10-20 nM and the cholinesterase inhibition (cholinesterase) is given as “weak cholinesterase inhibitor”.
For `CN1[C@@H]2C[C@@H](OC(=O)[C@H](CO)c3ccccc3)C[C@H]1[C@@H]1O[C@@H]12` [scopolamine, reference compound], the “rise in ACh levels” value ([4]; scopolamine 1 μM added to the perfusion fluid containing 100 nanomolar rivastigmine) was 3-5 fold.
